Laboratory results taken from publication PMC11320730, “5-Methoxy-2-aminoindane Reverses Diet-Induced Obesity and Improves Metabolic Parameters in Mice: A Potential New Class of Antiobesity Therapeutics” (ACS Pharmacology & Translational Science, 2024).

Legend:
Assay in all cases: Ligand binding assay (Eurofins)
Conditions in all cases: read-out: inhibitory activity (% inhibition of the binding of a specific ligand)
[1] = biological target: T1, 5-HT1A (Homo sapiens, UniProt P08908)
T1 construct: Eurofins (contract screening service)
T1 sequence (P08908 whole entry, species assumed): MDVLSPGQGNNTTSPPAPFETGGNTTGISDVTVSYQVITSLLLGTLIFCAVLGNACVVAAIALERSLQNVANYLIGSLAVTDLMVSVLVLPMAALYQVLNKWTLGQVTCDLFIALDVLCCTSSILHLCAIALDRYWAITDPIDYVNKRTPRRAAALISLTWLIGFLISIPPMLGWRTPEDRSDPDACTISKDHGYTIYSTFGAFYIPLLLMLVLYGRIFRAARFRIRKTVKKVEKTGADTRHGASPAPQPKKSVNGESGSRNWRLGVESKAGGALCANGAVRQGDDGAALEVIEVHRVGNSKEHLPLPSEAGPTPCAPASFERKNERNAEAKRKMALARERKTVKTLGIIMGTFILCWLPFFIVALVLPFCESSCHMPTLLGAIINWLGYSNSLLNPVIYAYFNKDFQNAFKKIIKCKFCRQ
Protocol: (§1) MEAI at 10 μM was tested in ligand binding assays at Eurofins Inc., as described previously.[20] Compound binding was calculated as a % inhibition of the binding of a ligand specific for each target. Results showing an inhibition or stimulation higher than 50% are considered to represent significant effects of MEAI. In each experiment, and if applicable, the respective reference compound was tested concurrently with MEAI and the data were compared with historical values determined at Eurofins. The experiment was accepted in accordance with the Eurofins validation Standard Operating Procedure.

[2] = biological target: T2, 5-HT2A (Homo sapiens, UniProt P28223)
T2 construct: Eurofins (contract screening service)
T2 sequence (P28223 whole entry): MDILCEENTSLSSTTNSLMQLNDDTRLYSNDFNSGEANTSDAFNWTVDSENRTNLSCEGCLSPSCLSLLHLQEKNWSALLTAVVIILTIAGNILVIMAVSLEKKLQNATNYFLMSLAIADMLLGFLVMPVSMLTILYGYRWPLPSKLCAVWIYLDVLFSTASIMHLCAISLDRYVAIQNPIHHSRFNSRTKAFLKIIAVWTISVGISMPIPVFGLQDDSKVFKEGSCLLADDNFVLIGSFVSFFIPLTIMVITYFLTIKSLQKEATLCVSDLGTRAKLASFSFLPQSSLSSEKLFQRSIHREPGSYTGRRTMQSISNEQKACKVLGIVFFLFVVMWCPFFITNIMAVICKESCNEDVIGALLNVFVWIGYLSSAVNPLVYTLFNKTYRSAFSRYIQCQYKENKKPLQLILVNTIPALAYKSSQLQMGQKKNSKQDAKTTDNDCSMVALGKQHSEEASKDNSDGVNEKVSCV
Protocol: as §1

[3] = biological target: T3, MAO-A enzyme (Homo sapiens, UniProt P21397)
T3 construct: Eurofins (contract screening service)
T3 sequence (P21397 whole entry, species assumed): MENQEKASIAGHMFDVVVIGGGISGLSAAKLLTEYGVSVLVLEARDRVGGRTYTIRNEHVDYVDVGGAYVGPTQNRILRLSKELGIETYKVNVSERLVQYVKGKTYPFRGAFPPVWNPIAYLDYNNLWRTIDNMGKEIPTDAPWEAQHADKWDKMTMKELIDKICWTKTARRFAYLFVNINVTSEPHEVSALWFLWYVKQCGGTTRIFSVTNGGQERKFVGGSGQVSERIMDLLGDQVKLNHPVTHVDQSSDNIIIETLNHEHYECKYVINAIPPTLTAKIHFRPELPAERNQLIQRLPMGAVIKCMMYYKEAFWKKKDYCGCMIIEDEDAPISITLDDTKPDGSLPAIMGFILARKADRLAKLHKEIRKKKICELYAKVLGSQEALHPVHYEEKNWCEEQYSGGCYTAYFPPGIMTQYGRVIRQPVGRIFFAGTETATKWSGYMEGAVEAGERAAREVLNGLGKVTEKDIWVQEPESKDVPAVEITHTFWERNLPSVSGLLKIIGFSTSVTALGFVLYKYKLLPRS
Protocol: as §1

[4] = biological target: T4, dopamine D2 receptor (Homo sapiens, UniProt P14416)
T4 construct: Eurofins (contract screening service)
T4 sequence (P14416 whole entry, species assumed): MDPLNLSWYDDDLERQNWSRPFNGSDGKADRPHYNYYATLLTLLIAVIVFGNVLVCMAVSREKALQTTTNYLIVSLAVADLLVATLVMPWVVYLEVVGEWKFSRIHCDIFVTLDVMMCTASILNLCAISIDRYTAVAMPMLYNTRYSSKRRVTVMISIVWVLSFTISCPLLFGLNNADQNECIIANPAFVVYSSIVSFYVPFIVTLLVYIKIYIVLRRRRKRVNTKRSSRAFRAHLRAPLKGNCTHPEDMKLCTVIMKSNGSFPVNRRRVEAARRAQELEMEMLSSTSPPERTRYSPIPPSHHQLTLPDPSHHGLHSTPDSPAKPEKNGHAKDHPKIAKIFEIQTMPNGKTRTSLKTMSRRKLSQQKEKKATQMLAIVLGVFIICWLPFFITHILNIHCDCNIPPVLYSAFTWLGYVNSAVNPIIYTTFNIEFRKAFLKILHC
Protocol: as §1

Measured: inhibition at 10 µM

COc1ccc2c(c1)CC(N)C2.Cl (stereo not shown) [MEAI, 2,3-Dihydro-5-methoxy-1H-inden-2-amine hydrochloride]
> 50%: all assays above
